Where a name gives a salt, the structure may show the parent alone. A value given as a limit tells only on which side of the number the result lay.

The first experiment deals with T1, GAβ-dependent amyloid fibril formation (Human Aβ1-40 + GM1-containing liposome) (Homo sapiens, UniProt P05067).
T1 construct: Human Aβ1-40 (cat. #4307-v, prepared by Peptide Institute); purchased Peptide Institute 4307-v
T1 sequence (P05067 672-711 limits assumed): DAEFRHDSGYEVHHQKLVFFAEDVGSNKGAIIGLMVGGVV
In words: Thioflavin T (ThT) assay of GAβ-dependent amyloid fibril formation (Aβ1-40 with GM1-containing liposome). Type of experiment: biochemical. Conditions: @5 μM; read-out: ThT Inhibitory activity (% inhibition). As for the experimental part:
<3. Evaluation of the Compounds Based on the Inhibitory Activity Against Amyloid Fibril Formation in Thioflabin T (ThT) Assay>
Inhibitory activity against GAβ-dependent amyloid fibril formation of the above compounds 1 to 133 and 142 to 267 were evaluated in ThT assay.
(1) Preparation of Aβ Solution
Human Aβ1-40 (cat. #4307-v, prepared by Peptide Institute) was dissolved in a 0.02% ammonia solution (400 μM), and the mixture was treated in an ultracentrifuge (S110AT rotor, Hitachi) at 100,000 rpm for 3 hours. Approximately two-thirds of the upper layer of the supernatant was recovered and protein concentration was measured. The Aβ solution was aliquoted and stored at −80° C. until use, was melted immediately before use, and was diluted to 75 μM using phosphate buffer (PBS: cat. #10010, manufactured by Life Technologies).
(2) Preparation of GM1-Containing Liposome
Using a mixed solution of chloroform/methanol (1:1) as a solvent, a mixed solution of 100 mM each of cholesterol and sphingomyelin (both manufactured by Sigma-Aldrich) was prepared. To this mixed solution, GM 1 (cat. #1061, manufactured by Matreya Co.) was dissolved to make a solution of 50 mM concentration. This lipid mixed solution was aliquoted into glass test tubes and stored at −20° C. until use, was melted before use, was mixed with chloroform/methanol mixture (1:1) and mixed, and then the solvent was removed by applying nitrogen gas to the suspension. The dried lipid mixture was resuspended in PBS to be a GM1 concentration of 2.5 mM, and frozen and thawed 5 times with liquid nitrogen. The lipid suspension was centrifuged at 15,000 rpm for 10 minutes and the precipitate was resuspended in PBS to be a GM1 concentration of 2.5 mM. Using an ultrasonic crusher (XL-2000, MISONIX Co., Ltd.) equipped with a microchip, ultrasonic treatment was repeated on ice for 10 seconds until the suspension became transparent, and GM1-containing liposome was prepared. Immediately prior to use, PBS was added and diluted to a GM 1 concentration of 75 μM.
(3) Preparation of Compound Solution
Compounds 1 to 133 and 142 to 267 were prepared as 10 mM and 2 mM solution in DMSO, respectively. And each solution was diluted to 75 μM or 15 μM with PBS immediately prior to use.
(4) GAβ-Dependent Amyloid Fibril Formation
To a 96-well microplate, 5 μl each of the 75 μM Aβ solution prepared above (1), the compound solution prepared in (3) or 0.75% DMSO was mixed and incubated at room temperature for 10 minutes. Then, 5 μl each of 750 μM GM1-containing liposome prepared in (2) was added to each well and incubated at 37° C. for 18 hours.
ThT (manufactured by Sigma-Aldrich) was adjusted to 5 μM using 50 mM glycine-NaOH buffer (pH 8.5). Immediately before measurement, 10 μl from each well of (4) was transferred to a 96-well black plate. 50 μl of 5 μM ThT solution was added from each injector to each well using a multi-plate reader (ARVO-HTS, manufactured by Perkin Elmer), and then the optimal fluorescence of ThT bound to amyloid fiber (excitation wavelength 430 nm, fluorescence wavelength 490 nm) was measured.
The fluorescence intensity of ThT indicates the degree of amyloid fibrils formation. By calculating the ratio of the ThT fluorescence intensity between addition of the compound and without addition of the compound, the inhibition rate against amyloid fibril formation by the compound was calculated.
`O=C1CC(CO)(c2nc(-c3ccc(O)cc3)no2)CN1c1ccc(Cl)cc1` (stereo not shown) [Compound 72, 1-(4-chloro-phenyl)-4-(hydroxy-methyl)-4-{3-(4-hydroxyphenyl)-1,2,4-oxadiazol-5-yl} pyrrolidin-2-one]: the inhibition at 5 µM came to 47%.

The same experiment, now with this note: @25 μM; read-out: ThT Inhibitory activity (% inhibition).
Regarding `CNCC(NC(=O)c1ccc(Cl)cc1)c1nnc(-c2ccc(OC(F)(F)F)cc2)o1` (stereo not shown) [Compound 118, 4-chloro-N-(2-(methylamino)-1-(5-(4-(tri-fluoromethoxy)phenyl)-1,3,4-oxadiazol-2-yl)ethyl)benzamide], the inhibition at 25 µM was found to be 72%.

Turning to `O=C1CC(CO)(c2nc(-c3ccc(O)cc3)no2)CN1c1ccc(Cl)cc1` (stereo not shown) [Compound 72, 1-(4-chloro-phenyl)-4-(hydroxy-methyl)-4-{3-(4-hydroxyphenyl)-1,2,4-oxadiazol-5-yl} pyrrolidin-2-one], the inhibition at 25 µM worked out at 81%.

Staying with this experiment, now noted: inhibition rate against amyloid fibril formation, final concentration of the compound 25 μM; read-out: Inhibitory activity ABC evaluation.
As for `Cc1ccc(-c2noc([C@H](CO)NC(=O)c3ccccc3)n2)cc1` [Compound 143, N-[(1S)-2-hydroxy-1-[3-(4-methylphenyl)-1,2,4-oxadiazol-5-yl]ethyl]benzamide], the inhibition at 25 µM was over 80%.

Regarding `NC(=O)C[C@H](NC(=O)c1ccc(Cl)cc1)c1nc(-c2ccc(OC(F)(F)F)cc2)no1` [Compound 86, (S)-N-(3-amino-3-oxo-1-{3-[4-(trifluoromethoxy)phenyl]-1,2,4-oxadiazol-5-yl}propyl)-4-chlorobenzamide], the inhibition at 25 µM was under 40%.

For `O=C(N[C@@H](CO)c1nc(-c2c[nH]c3ccc(Cl)cc23)no1)c1ccc(F)cc1` [Compound 233, N-[(1S)-1-[3-(5-chloro-1H-indol-3-yl)-1,2,4-oxadiazol-5-yl]-2-hydroxyethyl]-4-fluorobenzamide], the inhibition at 25 µM is 40 to 80%.

As for `O=C1CC(c2nc(-c3ccc(OC(F)(F)F)cc3)no2)CN1c1ccc(F)cc1` (stereo not drawn) [Compound 26, l-(4-fluorophenyl)-4-[3-{4-(trifluoro-methoxy)phenyl}-1,2,4-oxadiazol-5-yl]pyrrolidin-2-one], the inhibition at 25 µM fell in the range of 40 to 80%.

Turning to `O=C(N[C@@H](CO)c1nc(-c2ccc(C(F)(F)F)cn2)no1)c1ccc(F)cc1` [Compound 204, 4-fluoro-N-[(1S)-2-hydroxy-1-{3-[5-(trifluoromethyl)pyridin-2-yl]-1,2,4-oxadiazol-5-yl}ethyl]benzamide], the inhibition at 25 µM is 40 to 80%.

For `CC(C)c1ccc(-c2noc([C@H](CO)NC(=O)c3ccccc3)n2)cc1` [Compound 145, N-[(1S)-2-hydroxy-1-{3-[4-(propan-2-yl)phenyl]-1,2,4-oxadiazol-5-yl}ethyl]benzamide], the inhibition at 25 µM lay within 40 to 80%.

As to `COc1ccc(-c2noc(C3CC(=O)N(c4ccc(Cl)cc4)C3)n2)cc1` (stereo not shown) [Compound 24, 1-(4-chlorophenyl)-4-{3-(4-methoxyphenyl)-1,2,4-oxadiazol-5-yl}pyrrolidin-2-one], the inhibition at 25 µM fell in the range of 40 to 80%.

For the compound `O=C(N[C@@H](CO)c1nc(-c2cccc(C(F)(F)F)c2)no1)c1c[nH]c2ccccc12` [Compound 243, N-[(1S)-2-hydroxy-1-{3-[3-(trifluoromethyl)phenyl]-1,2,4-oxadiazol-5-yl}ethyl]-1H-indole-3-carboxamide], the inhibition at 25 µM is under 40%.

`O=C(CCc1nc(-c2ccc3c(c2)OCCO3)no1)N1CCc2ccccc2C1` [Compound 17, 3-{3-(2,3-dihydrobenzo[b][1,4]dioxin-6-yl)-1,2,4-oxadiazol-5-yl}-1-{3,4-dihydroisoquinolin-2(1H)-yl}propan-1-one]: the inhibition at 25 µM is 40 to 80%.

For `Oc1ccc(-c2noc(C(O)Cc3c[nH]c4ccccc34)n2)cc1` (stereo not shown) [Compound 89, 4-[5-{1-hydroxy-2-(1H-indol-3-yl)ethyl}-1,2,4-oxadiazol-3-yl]phenol], the inhibition at 25 µM lay within 40 to 80%.

For `O=C(c1ccc(Cl)cc1)N1C[C@@H](O)C[C@H]1c1nc(-c2ccc(OC(F)(F)F)cc2)no1` [Compound 56, (4-chlorophenyl) ((2S,4S)-4-hydroxy-2-[3-{4-(trifluoro-methoxy)phenyl}-1,2,4-oxadiazol-5-yl]pyrrolidin-1-yl)methanone], the inhibition at 25 µM was under 40%.

For the compound `C[Si](C)(C)c1ccc(-c2noc([C@H](CO)NC(=O)c3ccc(F)cc3)n2)cc1` [Compound 224, 4-fluoro-N-[(1S)-2-hydroxy-1-{3-[4-(trimethylsilyl)phenyl]-1,2,4-oxadiazol-5-yl}ethyl]benzamide], the inhibition at 25 µM was over 80%.

`O=C(N[C@@H](CO)c1nc(-c2ccc3ccccc3n2)no1)c1ccc(F)cc1` [Compound 225, 4-fluoro-N-[(1S)-2-hydroxy-1-[3-(quinolin-2-yl)-1,2,4-oxadiazol-5-yl]ethyl] benzamide]: the inhibition at 25 µM is 40 to 80%.

Take `O=C1CC(c2nc(-c3ccc(OC(F)(F)F)cc3)no2)CN1Cc1ccc(Cl)cc1` (stereo not shown) [Compound 64, 1-(4-chlorobenzyl)-4-{3-[4-(trifluoromethoxy)phenyl]-1,2,4-oxadiazol-5-yl}pyrrolidin-2-one]: the inhibition at 25 µM is 40 to 80%.

As for `CNCC(NC(=O)c1ccc(Cl)cc1)c1nnc(-c2ccc(OC(F)(F)F)cc2)o1` (stereo not shown) [Compound 118, 4-chloro-N-(2-(methylamino)-1-(5-(4-(tri-fluoromethoxy)phenyl)-1,3,4-oxadiazol-2-yl)ethyl)benzamide], the inhibition at 25 µM fell in the range of 40 to 80%.

As for `O=C1CC(CO)(c2nc(-c3ccc(O)cc3)no2)CN1c1ccc(Cl)cc1` (stereo not shown) [Compound 72, 1-(4-chloro-phenyl)-4-(hydroxy-methyl)-4-{3-(4-hydroxyphenyl)-1,2,4-oxadiazol-5-yl} pyrrolidin-2-one], the inhibition at 25 µM is over 80%.

For `O=C(N[C@@H](CO)c1nc(-c2ccoc2Cl)no1)c1ccc(F)cc1` [Compound 255, N-[(1S)-1-[3-(2-chlorofuran-3-yl)-1,2,4-oxadiazol-5-yl]-2-hydroxyethyl]-4-fluorobenzamide], the inhibition at 25 µM lay in the range of 40 to 80%.

On to `O=C1CC(c2nnc(-c3ccc(OC(F)(F)F)cc3)[nH]2)CN1c1ccc(Cl)cc1` (stereo not shown) [Compound 123, 1-(4-chlorophenyl)-4-{5-[4-(trifluoromethoxy)phenyl]-4H-1,2,4-triazol-3-yl}pyrrolidin-2-one], for which the inhibition at 25 µM is under 40%.

For the compound `O=C(N[C@@H](CO)c1nc(-c2c[nH]c3ccc(Cl)cc23)no1)c1ccc(Cl)cc1F` [Compound 252, 4-chloro-N-[(1S)-1-[3-(5-chloro-1H-indol-3-yl)-1,2,4-oxadiazol-5-yl]-2-hydroxyethyl]-2-fluorobenzamide], the inhibition at 25 µM was 40 to 80%.

For `O=C(N[C@@H](CO)c1nc(-c2ccc(C(=O)C(F)(F)F)cc2)no1)c1ccccc1` [Compound 165, N-[(1S)-2-hydroxy-1-{3-[4-(2,2,2-trifluoroacetyl)phenyl]-1,2,4-oxadiazol-5-yl}ethyl] benzamide], the inhibition at 25 µM is over 80%.

As for `CN(C(=O)CCc1nc(-c2ccc(OC(F)(F)F)cc2)no1)c1cccc(Cl)c1` [Compound 11, N-(3-chlorophenyl)-N-methyl-3-[3-{4-(trifluoromethoxy)phenyl}-1,2,4-oxadiazol-5-yl]propanamide], the inhibition at 25 µM fell in the range of 40 to 80%.

As for `O=C(N[C@@H](CO)c1nc(-c2ccc(OC(F)(F)F)cc2)no1)c1ccc(O)c(Cl)c1` [Compound 98, (S)-3-chloro-4-hydroxy-N-(2-hydroxy-1-[3-{4-(trifluoromethoxy)phenyl}-1,2,4-oxadiazol-5-yl]ethyl)benzamide], the inhibition at 25 µM is under 40%.

With `NC(Cc1ccc(O)cc1)c1nc(-c2ccc(OC(F)(F)F)cc2)no1` (stereo not shown) [Compound 38, 4-(2-amino-2-[3-{4-(trifluoromethoxy)phenyl}-1,2,4-oxadiazol-5-yl]ethyl)phenol], the inhibition at 25 µM is 40 to 80%.

Turning to `CCCN(C(=O)CCc1nc(-c2ccc(OC)cc2)no1)c1cncc(Cl)c1` [Compound 5, N-(5-chloropyridin-3-yl)-3-{3-(4-methoxyphenyl)-1,2,4-oxadiazol-5-yl}-N-propylpropanamide], the inhibition at 25 µM fell in the range of 40 to 80%.

As for `N[C@@H](Cc1c[nH]c2ccccc12)c1nnc(-c2ccc(OC(F)(F)F)cc2)o1` [Compound 110, (S)-2-(1H-indol-3-yl)-1-(5-(4-(trifluoro-methoxy)phenyl)-1,3,4-oxadiazol-2-yl) ethan-1-amine hydrochloride], the inhibition at 25 µM was 40 to 80%.

(Values after patent US10538516B2, “Oxadiazole derivative and pharmaceutical containing same” (National Center for Geriatrics and Gerontology, priority 2015, dated 2020).)
